Assay results from patent US11753407B2, “Compounds for treating spinal muscular atrophy” (PTC Therapeutics, Inc., priority 2012, dated 2023).

What was measured:
[1] = system: SMN2 minigene mRNA (SMN2-A minigene) in HEK293H cells; assay: SMN2 minigene mRNA splicing RT-qPCR assay in cultured cells; format: cell-based, human; settings: Homo sapiens, HEK293-H; concentration increasing full length SMN2 mRNA 1.5-fold relative to vehicle-treated cells; HEK293H cells with SMN2-A minigene, 24 hours, 7-point concentration data; read-out: EC1.5x for production of full length SMN2 mRNA
Method in brief: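 Cells are seeded, left to attach 4-6 h, then dosed with test compound across seven concentrations and incubated 24 h. Lysates undergo RT-qPCR with primers/probe specific to the exon 7-containing minigene transcript, co-amplified with GAPDH. Fold change over vehicle is calculated, and EC1.5× marks the 1.5-fold point.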

[2] = system: Smn protein in SMA patient fibroblast cells (GM03813); assay: Smn protein assay in cultured cells (SMN HTRF); format: cell-based, human; settings: SMA patient fibroblast cells, 48 hours; for maximum fold (Fold) increase of Smn protein: 7-point concentration data, fold relative to vehicle control; for EC1.5x for Smn protein expression: 7-point concentration curve, SMN HTRF, concentration producing 1.5 times Smn protein vs DMSO vehicle control
Method in brief: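 Patient-derived SMA fibroblasts are plated, given compound for 48 h, then lysed in RIPA buffer with protease inhibitors. Lysate Smn is detected by an anti-SMN d2/kryptate HTRF pair incubated overnight. The normalized ΔF is divided by the vehicle ΔF to give fold change, from which EC1.5× and maximum fold are taken.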

| melting point [°C] | SMILES | EC (1.5-fold increase) [1] [µM] | maximum fold (Fold) increase of Smn protein [2] | EC1.5x for Smn protein expression [2] |
| --- | --- | --- | --- | --- |
| 163 to 170 | CNCC1CCN(c2ccc3nc(-c4ccc(OC)c(F)c4)cc(=O)n3c2)CC1 [Compound 223, 2-(3-fluoro-4-methoxyphenyl)-7-{4-[(methylamino)methyl]piperidin-1-yl}-4H-pyrido[1,2-a]pyrimidin-4-one] | 0.3 to 1 | *** (a fold increase between >1.35 and ≤1.5 is indicated by three stars (***)) | – |
| 193 to 198 | COc1ccc(-c2cc(=O)n3cc(N4CC[C@H](N)C4)ccc3n2)cc1F [Compound 224, 7-[(3S)-3-aminopyrrolidin-1-yl]-2-(3-fluoro-4-methoxyphenyl)-4H-pyrido[1,2-a]pyrimidin-4-one] | 0.3 to 1 | **** (a fold increase between >1.5 and ≤1.65 is indicated by four stars (****)) | *** (an EC1.5× between >0.3 μM and ≤1 μM is indicated by three stars (***)) |
| 197 to 202 | COc1ccc(-c2cc(=O)n3cc(N[C@@H]4CCN(C)C4)ccc3n2)cc1F [Compound 225, 2-(3-fluoro-4-methoxyphenyl)-7-{[(3R)-1-methylpyrrolidin-3-yl]amino}-4H-pyrido[1,2-a]pyrimidin-4-one] | 1 to 3 | * (A maximum fold increase of ≤1.2 is indicated by one star (*)) | – |
| 178 to 185 | COc1ccc(-c2cc(=O)n3cc(N4CCC(CN(C)C)CC4)ccc3n2)cc1F [Compound 226, 7-{4-[(dimethylamino)methyl]piperidin-1-yl}-2-(3-fluoro-4-methoxyphenyl)-4H-pyrido[1,2-a]pyrimidin-4-one] | 0.3 to 1 | * (A maximum fold increase of ≤1.2 is indicated by one star (*)) | – |
| 214 to 218 | COc1cccc(-c2cc(=O)n3cc(N4CCNCC4)ccc3n2)n1 [Compound 227, 2-(6-methoxypyridin-2-yl)-7-(piperazin-1-yl)-4H-pyrido[1,2-a]pyrimidin-4-one] | 1 to 3 | *** (a fold increase between >1.35 and ≤1.5 is indicated by three stars (***)) | – |
| 175 to 178 | O=c1cc(-c2cccnc2)nc2ccc(N3CCNCC3)cn12 [Compound 228, 7-(piperazin-1-yl)-2-(pyridin-3-yl)-4H-pyrido[1,2-a]pyrimidin-4-one] | 1 to 3 | ** (a fold increase between >1.2 and ≤1.35 is indicated by two stars (**)) | – |
| 192 to 195 | COc1cncc(-c2cc(=O)n3cc(N4CCNCC4)ccc3n2)c1 [Compound 229, 2-(5-methoxypyridin-3-yl)-7-(piperazin-1-yl)-4H-pyrido[1,2-a]pyrimidin-4-one] | 0.3 to 1 | *** (a fold increase between >1.35 and ≤1.5 is indicated by three stars (***)) | * (An EC1.5× for Smn protein expression between >3 μM and ≤10 μM is indicated by one star (*)) |
| 185 to 188 | C[C@H]1CN(c2ccc3nc(-c4cc(F)cc(C#N)c4)cc(=O)n3c2)CCN1 [Compound 230, 3-fluoro-5-{7-[(3S)-3-methylpiperazin-1-yl]-4-oxo-4H-pyrido[1,2-a]pyrimidin-2-yl}benzonitrile] | 0.3 to 1 | **** (a fold increase between >1.5 and ≤1.65 is indicated by four stars (****)) | ** (an EC1.5× between >1 μM and ≤3 μM is indicated by two stars (**)) |
| 238 to 244 | N#Cc1cc(F)cc(-c2cc(=O)n3cc(N4CCNCC4)ccc3n2)c1 [Compound 231, 3-fluoro-5-[4-oxo-7-(piperazin-1-yl)-4H-pyrido[1,2-a]pyrimidin-2-yl]benzonitrile] | 0.3 to 1 | **** (a fold increase between >1.5 and ≤1.65 is indicated by four stars (****)) | ** (an EC1.5× between >1 μM and ≤3 μM is indicated by two stars (**)) |
| 226 to 232 | COc1ccc(-c2cc(=O)n3cc(N4C[C@H](O)[C@@H](N5CCCC5)C4)ccc3n2)cc1F [Compound 232, 2-(3-fluoro-4-methoxyphenyl)-7-[(3′S,4′S)-4′-hydroxy-1,3′-bipyrrolidin-1′-yl]-4H-pyrido[1,2-a]pyrimidin-4-one] | 1 to 3 | * (A maximum fold increase of ≤1.2 is indicated by one star (*)) | – |
| 143 to 147 | COc1ccc(-c2cc(=O)n3cc(N(C)[C@@H]4CCNC4)ccc3n2)cc1F [Compound 233, 2-(3-fluoro-4-methoxyphenyl)-7-{methyl[(3R)-pyrrolidin-3-yl]amino}-4H-pyrido[1,2-a]pyrimidin-4-one] | 0.3 to 1 | * (A maximum fold increase of ≤1.2 is indicated by one star (*)) | – |
| 205 to 209 | Cc1nc2ccc(-c3cc(=O)n4cc(N5CCN(C)[C@@H](C)C5)ccc4n3)cc2o1 [Compound 234, 7-[(3S)-3,4-dimethylpiperazin-1-yl]-2-(2-methyl-1,3-benzoxazol-6-yl)-4H-pyrido[1,2-a]pyrimidin-4-one] | < 0.1 | ***** (a fold increase >1.65 is indicated by five stars (*****)) | **** (an EC1.5x≤0.3 μM is indicated by four stars (****)) |
| 164 to 166 | COc1ccc(-c2cc(=O)n3cc(O[C@H]4CCNC4)ccc3n2)cc1OC [Compound 236, 2-(3,4-dimethoxyphenyl)-7-[(3S)-pyrrolidin-3-yloxy]-4H-pyrido[1,2-a]pyrimidin-4-one] | 1 to 3 | *** (a fold increase between >1.35 and ≤1.5 is indicated by three stars (***)) | * (An EC1.5× for Smn protein expression between >3 μM and ≤10 μM is indicated by one star (*)) |
| 160 to 177 | COc1ccc(-c2cc(=O)n3cc(N4CCCNCC4)cc(C)c3n2)cc1OC [Compound 238, 7-(1,4-diazepan-1-yl)-2-(3,4-dimethoxyphenyl)-9-methyl-4H-pyrido[1,2-a]pyrimidin-4-one] | 0.3 to 1 | ** (a fold increase between >1.2 and ≤1.35 is indicated by two stars (**)) | – |
| 206 to 210 | Cc1nc2ccc(-c3cc(=O)n4cc(N5CCC(N(C)C)CC5)ccc4n3)cc2o1 [Compound 240, 7-[4-(dimethylamino)piperidin-1-yl]-2-(2-methyl-1,3-benzoxazol-6-yl)-4H-pyrido[1,2-a]pyrimidin-4-one] | < 0.1 | **** (a fold increase between >1.5 and ≤1.65 is indicated by four stars (****)) | **** (an EC1.5x≤0.3 μM is indicated by four stars (****)) |
| 189 to 193 | Cc1nc2ccc(-c3cc(=O)n4cc(N5CC[C@H](N(C)C)C5)ccc4n3)cc2o1 [Compound 241, 7-[(3S)-3-(dimethylamino)pyrrolidin-1-yl]-2-(2-methyl-1,3-benzoxazol-6-yl)-4H-pyrido[1,2-a]pyrimidin-4-one] | 0.1 to 0.3 | ***** (a fold increase >1.65 is indicated by five stars (*****)) | **** (an EC1.5x≤0.3 μM is indicated by four stars (****)) |
